Legend:
[1] = tested on: human skin squamous cell A431 xenograft (CDX); assay: Selectivity study in vivo, A431 xenograft (CDX) model; set-up: species or system BALB/c nude mice; conditions: Table 5 experiment, AZD9291 5 mg/kg
Experimental: In this model, the less inhibitory effect on the tumor, the better the selectivity in vivo.
The selective experiments in vivo were performed on BALB/c nude mice that subcutaneously implanted human skin squamous cell A431 xenograft (CDX).
BALB/c nude mice, female, 6-8 weeks, weighted about 18-20 grams, the mice were kept in a special pathogen-free environment and in a single ventilation cage (5 mice per cage). The bedding and water of all the cages were disinfected before use. All animals were free to obtain standard certified commercial laboratory diets. All mice were purchased from mice of Shanghai BK Laboratory Animal Co., LTD for research. The tumor tissue (20-30 mm^3) was implanted subcutaneously in the […] of each mouse for tumor growth. The experiment was started when the average tumor volume reached about 150-200 mm^3. The test compound was orally administered (compounds 17, 30, 37 and 38 were administered once daily at 20 mg/kg, the compound AZD9291 was administered once daily at 5 mg/kg, the compound CO-1686 was administered twice daily at 50 mg/kg, the compound Erlotinib was administered once daily at 75 mg/kg and the compound Afatinib was administered once daily at 7.5 mg/kg, 21 days of continuous administration. The data were shown in Table 4; compounds 33, 34, 40, 42 and 43 were administered once daily at 20 mg/kg and compound AZD9291 was administered once daily at5 mg/kg, 21 days of continuous administration. The tumor volume was measured twice a week with a two-dimensional caliper and the volume was measured in cubic millimeters and calculated by the following formula: V=V=0.5 a×b2, where a and b were the major and minor diameters of the tumor, respectively.

[2] = tested on: NCI-H1975 lung cancer patient-derived xenograft (CDX); assay: Pharmacodynamics study in vivo, NCI-H1975 xenograft (CDX) model; set-up: species or system BALB/c nude mice; conditions: AZD9291 5 mg/kg
Procedure, shortened: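 Tumour volume, from two-dimensional caliper readings twice a week as V = 0.5 a×b2, followed over 21 days of daily oral dosing at 10 or 20 mg/kg. Hosts were female BALB/c nude mice, 6-8 weeks, bearing subcutaneous NCI-H1975 implants grown to about 150-200 mm^3 before treatment.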

A431 cells EGFR WT = assay: A431 cell viability assay (Cell Titer-Glo, 6 days); assay type: cell-based, human
Procedure, shortened: (§1)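 A431 (EGFR WT) and NCI-H1975 (EGFR L858R/T790M) cells treated for 6 days at 37° C, in duplicate with 10 three-fold doses from 10 μM to 0.508 nM final. Viability read as CellTiter-Glo luminescence. IC50 from four-parameter fit of % inhibition.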

EGFR T790M/L858R = biological target: T1, EGFR T790M/L858R (Homo sapiens, UniProt P00533, L858R/T790M); assay: EGFR T790M/L858R enzyme HTRF inhibition assay; assay type: biochemical; conditions: 20 μM ATP, read-out: EGFR L858R/T79M IC50
T1 construct: purchased Life technology (Madison, Wis.)
Procedure, shortened: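 HTRF assay with 0.04 nM enzyme, 1 μM biotin-TK1 peptide and 20 μM ATP, 60 min at 23° C. Product detected with Eu-anti-TK1 antibody/XL665 (60 min at 23° C); compound at 10 doses, 300 nM to 0.015 nM final. IC50 from four-parameter fit.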

[3] = tested on: NCI-H1975 cells EGFR L858R/T790M; assay: NCI-H1975 cell viability assay (Cell Titer-Glo, 6 days); assay type: cell-based; conditions: Homo sapiens, 144 h
Procedure, shortened: as §1

T1 sequence (P00533 25-1210 T790M/L858R): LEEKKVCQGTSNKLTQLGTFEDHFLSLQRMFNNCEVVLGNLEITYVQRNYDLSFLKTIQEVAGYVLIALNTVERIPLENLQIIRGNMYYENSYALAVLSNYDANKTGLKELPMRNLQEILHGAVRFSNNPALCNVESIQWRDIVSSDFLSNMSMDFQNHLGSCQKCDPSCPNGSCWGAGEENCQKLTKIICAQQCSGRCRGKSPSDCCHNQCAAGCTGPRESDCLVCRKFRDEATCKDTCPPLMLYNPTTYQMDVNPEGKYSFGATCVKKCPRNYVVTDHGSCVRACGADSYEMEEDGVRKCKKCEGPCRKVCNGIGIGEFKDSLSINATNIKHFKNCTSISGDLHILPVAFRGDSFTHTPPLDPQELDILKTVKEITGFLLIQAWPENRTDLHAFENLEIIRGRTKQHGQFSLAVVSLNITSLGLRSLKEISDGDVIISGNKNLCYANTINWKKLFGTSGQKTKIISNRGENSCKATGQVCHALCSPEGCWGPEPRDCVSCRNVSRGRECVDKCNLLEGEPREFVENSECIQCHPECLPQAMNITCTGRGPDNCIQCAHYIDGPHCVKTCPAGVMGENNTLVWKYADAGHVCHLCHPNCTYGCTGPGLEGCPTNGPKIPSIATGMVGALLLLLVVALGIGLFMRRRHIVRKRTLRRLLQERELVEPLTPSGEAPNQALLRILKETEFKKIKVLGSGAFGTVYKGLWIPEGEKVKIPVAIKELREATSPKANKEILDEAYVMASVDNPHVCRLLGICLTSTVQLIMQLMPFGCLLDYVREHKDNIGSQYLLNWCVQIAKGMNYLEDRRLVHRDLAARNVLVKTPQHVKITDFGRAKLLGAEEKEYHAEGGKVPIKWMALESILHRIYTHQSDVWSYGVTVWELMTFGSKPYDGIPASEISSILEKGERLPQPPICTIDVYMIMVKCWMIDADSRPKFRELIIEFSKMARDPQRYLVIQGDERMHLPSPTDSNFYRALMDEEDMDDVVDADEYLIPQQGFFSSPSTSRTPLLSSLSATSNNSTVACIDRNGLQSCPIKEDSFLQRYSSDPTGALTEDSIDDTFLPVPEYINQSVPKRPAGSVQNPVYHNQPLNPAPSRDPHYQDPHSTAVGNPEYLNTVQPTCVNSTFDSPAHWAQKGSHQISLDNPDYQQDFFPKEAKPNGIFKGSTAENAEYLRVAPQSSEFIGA

IC50 (A431 cells EGFR WT; Homo sapiens, A-431, 144 h, A431 cells, 6 days): 693 nM
IC50 (EGFR T790M/L858R): 0.5 nM
IC50 [3]: 90 nM
Structure (SMILES): C=CC(=O)Nc1cc(Nc2ncc(F)c(-c3c4n(c5cc(F)ccc35)CCOC4)n2)c(OC)cc1N(C)CCN(C)C [Embodiment 33, N-(2-((2-(Dimethylamino)ethyl)(methyl)amino)-5-((5-fluoro-4-(7-fluoro-3,4-dihydro-1H-[1,4]oxazino[4,3-a]indol-10-yl)pyrimidin-2-yl)amino)-4-methoxyphenyl)acrylamide]
Tumor Volume (mm^3) 4 days ([1]; day 4, oral once daily: 33, 34, 40, 42, 43 20 mg/kg): 202 mm^3
Tumor Volume (mm^3) 11 days ([1]; day 11, oral once daily: 33, 34, 40, 42, 43 20 mg/kg): 428 mm^3
Tumor Volume (mm^3) 18 days ([1]; day 18, oral once daily: 33, 34, 40, 42, 43 20 mg/kg): 930 mm^3
Tumor Volume (mm^3) 4 days ([2]; day 4, oral daily: compound 30 10 mg/kg, 33, 34, 40, 42, 43 20 mg/kg): 91 mm^3
Tumor Volume (mm^3) 7 days ([2]; day 7, oral daily: compound 30 10 mg/kg, 33, 34, 40, 42, 43 20 mg/kg): 68 mm^3
Tumor Volume (mm^3) 11 days ([2]; day 11, oral daily: compound 30 10 mg/kg, 33, 34, 40, 42, 43 20 mg/kg): 43 mm^3
Tumor Volume (mm^3) 14 days ([2]; day 14, oral daily: compound 30 10 mg/kg, 33, 34, 40, 42, 43 20 mg/kg): 27 mm^3
Tumor Volume (mm^3) 18 days ([2]; day 18, oral daily: compound 30 10 mg/kg, 33, 34, 40, 42, 43 20 mg/kg): 9 mm^3
Tumor Volume (mm^3) 21 days ([2]; day 21, oral daily: compound 30 10 mg/kg, 33, 34, 40, 42, 43 20 mg/kg): 3 mm^3
A431:NCI-H1975 (ratio) (A431 cells EGFR WT; ratio of cell IC50 A431 to NCI-H1975): 7.7

— US10093656B2, “Fused-ring or tricyclic aryl pyrimidine compound used as kinase inhibitor” (NANJING SANHOME PHARMACEUTICAL CO., LTD, priority 2015, dated 2018)
